Assay [1] concerns Trypanosoma brucei rhodesiense. The experiment in a line: Antitrypanosomal activity against Trypanosoma brucei rhodesiense IL-1501 assessed as parasite growth inhibition incubated for 69 hrs by AlamarBlue assay. It is filed as functional, organism-based. Conditions: IL-1501, 69 h. Background: Alamar Blue is a resazurin reagent that responds to reducing activity.
Assay [2] can be described thus: Ratio of IC50 for cytotoxicity against human WI-38 cells to IC50 for antitrypanosomal activity against Trypanosoma brucei rhodesiense IL-1501.
In another assay the test system is HL-60. Briefly: Growth inhibition of human HL-60 cells at 10 uM incubated for 72 hrs by MTT assay. Type of assay: functional, cell-based. (Tetrazolium dyes change colour on reduction, which living cells bring about.)
In the next assay the test system is WI-38. Briefly: Cytotoxicity against human WI-38 cells assessed as cell growth inhibition measured after 72 hrs by MTT assay. Type of assay: cell-based. The following applies: WI-38, 72 h.
The next assay relates to HeLa. Briefly: Growth inhibition of human HeLa cells at 10 uM incubated for 72 hrs by MTT assay. Type of assay: functional, cell-based.

Active and inactive are the calls of the source. The rule behind the calls is not given here. Numbered stars: 1 amine (or outer) side, 2 acyl side, 3 side chain; on linkers, the order of the positions; unused ones are H or OH. Square brackets hold non-standard residues; d marks the D form. Peptide text beside a SMILES is read from it. X1 = CC(C)=CC[C@@]12C[C@@H](C(=O)[*:2])N([*:1])[C@@H]1Nc1ccccc12

The values that follow come from ChEMBL document CHEMBL5053488, “Motobamide, an Antitrypanosomal Cyclic Peptide from a Leptolyngbya sp. Marine Cyanobacterium” (J Nat Prod, 2021).

A word on the IC50: it is the midpoint of a concentration-inhibition curve.

As for `CSCC[C@@H]1NC(=O)[C@@H]2CCCN2C(=O)[C@H](C(C)C)NC(=O)[C@@H]2CCCN2C(=O)[C@@H]2CCCN2C(=O)[C@H](CC(C)C)NC(=O)[C@@H]2C[C@@]3(CC=C(C)C)c4ccccc4N[C@H]3N2C(=O)[C@@H]2CCCN2C(=O)[C@H](C(C)C)NC(=O)[C@H](CC(C)C)NC1=O` (cyclo(LPPVPMLVP[X1])), the IC50 in assay [1] came out at 2.3 µM; in the assay with WI-38 it was 55 µM. The “Ratio IC50” value in assay [2] is given as over 20. Moreover, the “growth inhibition (GI)” value in the assay on HL-60 and in the assay with HeLa was “inactive” each time.
